Biological target: Neuraminidase (Influenza B virus (strain B/Lee/1940), UniProt P03474)
Assay: Effective concentration against neuraminidase of Influenza B virus B/Memphis strain

Sequence of Neuraminidase (P03474 whole entry): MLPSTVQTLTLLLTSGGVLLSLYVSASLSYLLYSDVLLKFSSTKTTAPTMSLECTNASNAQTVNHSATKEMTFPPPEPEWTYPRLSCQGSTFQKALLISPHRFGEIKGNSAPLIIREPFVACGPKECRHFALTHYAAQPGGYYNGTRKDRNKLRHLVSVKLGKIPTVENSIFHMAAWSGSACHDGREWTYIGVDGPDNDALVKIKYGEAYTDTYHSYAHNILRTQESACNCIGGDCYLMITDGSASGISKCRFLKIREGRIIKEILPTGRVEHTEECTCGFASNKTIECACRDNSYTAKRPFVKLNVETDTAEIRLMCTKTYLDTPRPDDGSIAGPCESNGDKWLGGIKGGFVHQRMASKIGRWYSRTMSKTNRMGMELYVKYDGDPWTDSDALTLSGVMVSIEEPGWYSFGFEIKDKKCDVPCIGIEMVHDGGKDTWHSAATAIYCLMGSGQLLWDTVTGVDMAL

SMILES	EC50 [µM]
CC(=O)N[C@@H](CC(C)C)[C@@H]1N[C@@H](C(=O)O)C[C@H]1C=C(F)F	9
CC(=O)N[C@@H](CC(C)C)[C@@H]1N[C@@H](C(=O)O)C[C@H]1c1nccs1	6
C=C[C@@H]1C[C@H](C(=O)O)N[C@H]1[C@H](CC(C)C)NC(C)=O	23
CC(=O)N[C@@H](CC(C)C)[C@@H]1N[C@@H](C(=O)O)C[C@H]1c1c[nH]cn1	11

From ChEMBL document CHEMBL1139539, “Structure-based characterization and optimization of novel hydrophobic binding interactions in a series of pyrrolidine influenza neuraminidase inhibitors” (J Med Chem, 2005)
